Reference: patent EP2951180B1, “2,6,7,8 SUBSTITUTED PURINES AS HDM2 INHIBITORS” (Merck Sharp & Dohme Corp., priority 2013, dated 2014)
Like-named read-outs stand apart in the source and are kept apart here.

Target: T1, HDM2 (Homo sapiens, UniProt Q00987)
T1 construct: Thioredoxin (N); made in house; host or cells: E. coli strain BL21(DE3)Rosetta
Assay: HDM2 FRET assay (inhibition of binding of FITC labeled p53-pocket peptide to HDM2)
Conditions: read-out: FRET IC50
Text: Methods: An HDM2 FRET assay was developed to assess the compounds' inhibitory activity towards binding of p53 protein. […] Protein was purified using Ni-affinity chromatography, followed by size exclusion chromatography using Superdex 75 26/60 column. […] The HDM2 assay buffer contained 1x Phosphate Buffered Saline (Invitrogen, Cat#14190), 0.01% BSA (Jackson ImmunoResearch, Cat# 001-000-162), 0.01% Tween-20. In the 1X assay buffer recombinant HDM2 protein, peptide and Lumi4-Tb Cryptate-conjugate mouse anti-6xHis antibody (cisbio, Cat#Tb61HISTLB) were added and transferred to ProxiPlate PLUS (PerkinElmer, Cat#6008269), containing compounds so that final DMSO concentration is 0.1% . Final concentrations of reagents in the assay wells are 0.5 nM HDM2, 0.25nM anti HIS (Tb label) antibody and 3nM peptide. […] Ratio of em520/em495 was used to calculate %inhibition and to obtain IC50 with 4-parameter logistic equation.
IC50 DETERMINATIONS: Dose-response curves were plotted from the inhibition data, from 10 point serial dilutions of inhibitory compounds. Concentration of compound was plotted against em520/Cem495 ratio signal. To generate IC50 values, the dose-response curves were fitted to a standard sigmoidal curve and IC50 values were derived by nonlinear regression analysis.

[1] = 0.5 nM HDM2 (residues 17 to 125), 3nM peptide, two hour incubation at room temperature

T1 sequence (Q00987 17-125): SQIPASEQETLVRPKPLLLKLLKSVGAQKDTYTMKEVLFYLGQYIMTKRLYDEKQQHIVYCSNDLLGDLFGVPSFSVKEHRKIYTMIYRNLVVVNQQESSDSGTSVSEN

`CC(Nc1nc2nc(C(=O)O)nc(N[C@H](C)C3CCC3)c2n1Cc1ccc(C(F)(F)F)cc1)c1ccccn1` (stereo partly drawn) [Example 9.31, 6-{[(1R)-1-cyclobutylethyl]amino}-8-[(1-pyridin-2-ylethyl)amino]-7-[4-(trifluoromethyl)benzyl]-7H-purine-2-carboxylic acid] was tested, and the IC50 (Table 9) was 0.526 nM.

`C[C@@H](Nc1nc(CO)nc2nc(N3CCOC[C@H]3c3ccccc3)n(C[C@H]3CC[C@H](C)CC3)c12)C1CCC1` [Example 12.22, (6-{[(1R)-1-cyclobutylethyl]amino}-7-[(trans-4-methylcyclohexyl)methyl]-8-[(3R)-3-phenylmorpholin-4-yl]-7H-purin-2-yl)methanol] was tested, and the IC50 [1] was 78.6 nM.

Compound `C[C@@H](Nc1nc(-c2noc(=O)[nH]2)nc2nc(N(C)CC(C)(C)C)n(Cc3ccc(C(F)(F)F)cc3)c12)C1CCC1` [Example 9.84, 3-(6-{[(1R)-1-cyclobutylethyl]amino}-8-[(2,2-dimethylpropyl)(methyl)amino]-7-[4-(trifluoromethyl)benzyl]-7H-purin-2-yl)-1,2,4-oxadiazol-5(4H)-one] has an IC50 (Table 9) of 13.3 nM.

`C[C@@H](Nc1nc(-c2n[nH]c(=O)o2)nc2nc(C3CCCCC3)n(C[C@H]3CC[C@H](C)CC3)c12)C1CCC1` [Example 21.40, 5-(6-{[(1R)-1-cyclobutylethyl]amino}-8-cyclohexyl-7-[(trans-4-methylcyclohexyl)methyl]-7H-purin-2-yl)-1,3,4-oxadiazol-2(3H)-one] was tested, and the IC50 (Table 21) was 4.29 nM.

Work on `C[C@H]1OCCN(c2nc3nc(-c4noc(=O)[nH]4)nc(-c4cncc(Cl)c4)c3n2C[C@H]2CC[C@H](C)CC2)[C@@H]1c1ccccc1` [Example 16.135, 3-{6-(5-chloropyridin-3-yl)-7-[(trans-4-methylcyclohexyl)methyl]-8-[(2R,3R)-2-methyl-3-phenylmorpholin-4-yl]-7H-purin-2-yl}-1,2,4-oxadiazol-5(4H)-one] yielded an IC50 [1] of 0.504 nM.

`C[C@@H](Nc1nc(C(=O)O)nc2nc(CC(C)(C)C)n(C[C@H]3CC[C@H](C)CC3)c12)C1CCC1` [Example 20.6, 6-{[(1R)-1-cyclobutylethyl]amino}-8-(2,2-dimethylpropyl)-7-[(trans-4-methylcyclohexyl)methyl]-7H-purine-2-carboxylic acid] gave an IC50 (Table 20) of 13.9 nM.

Compound `CC(C)C[C@@H]1COCCN1c1nc2nc(-c3noc(=O)[nH]3)nc(-c3cccc(Cl)c3)c2n1C[C@H]1CC[C@H](C)CC1` [Example 16.40, 3-{6-(3-chlorophenyl)-7-[(trans-4-methylcyclohexyl)methyl]-8-[(3R)-3-(2-methylpropyl)morpholin-4-yl]-7H-purin-2-yl}-1,2,4-oxadiazol-5(4H)-one] has an IC50 [1] of 4.59 nM.

With `CC(C)CC1CCCN1c1nc2nc(-c3noc(=O)[nH]3)nc(N[C@H](C)C3CCC3)c2n1Cc1ccc(C(F)(F)F)cc1` (stereo partly drawn) [Example 9.91, 3-(6-{[(1R)-1-cyclobutylethyl]amino}-8-[2-(2-methylpropyl)pyrrolidin-1-yl]-7-[4-(trifluoromethyl)benzyl]-7H-purin-2-yl)-1,2,4-oxadiazol-5(4H)-one] the IC50 (Table 9) was 19.4 nM.

In the case of `C[C@@H](Nc1nc(N2CC(C(=O)O)C(C)(C)C2)nc2nc(N3CCOC[C@H]3c3ccccc3)n(C[C@H]3CC[C@H](C)CC3)c12)C1CCC1` (stereo partly drawn) [Example 13.11, 1-(6-{[(1R)-1-cyclobutylethyl]amino}-7-[(trans-4-methylcyclohexyl)methyl]-8-[(3R)-3-phenylmorpholin-4-yl]-7H-purin-2-yl)-4,4-dimethylpyrrolidine-3 - carboxylic acid], the IC50 [1] is reported as 95.9 nM.

With `C[C@@H](Nc1nc(-c2noc(=O)[nH]2)nc2nc(C(=O)C3CCOCC3)n(C[C@H]3CC[C@H](C)CC3)c12)C1CCC1` [Example 22.31, 3-[6-{[(1R)-1-cyclobutylethyl]amino}-7-[(trans-4-methylcyclohexyl)methyl] -8-(tetrahydro-2H-pyran-4-ylcarbonyl)-7H-purin-2-yl]-1,2,4-oxadiazol-5(4H)-one] the IC50 (Table 22) was 6.45 nM.

With `C[C@@H](Nc1nc(C(=O)O)nc2nc(N3CCc4ccccc4C3)n(C[C@H]3CC[C@H](C)CC3)c12)C1CCC1` [Example 11.17, 6-{[(1R)-1-cyclobutylethyl]amino}-8-(3,4-dihydroisoquinolin-2(1H)-yl)-7-[(trans-4-methylcyclohexyl)methyl]-7H-purine-2-carboxylic acid] the IC50 (Table 11) was 17.9 nM.

In the case of `C[C@@H](Nc1nc(C(=O)O)nc2nc(N3CCCC(C)(C)C3)n(Cc3ccc(C(F)(F)F)cc3)c12)C1CCC1` [Example 9.45, 6-{[(1R)-1-cyclobutylethyl]amino}-8-(3,3-dimethylpiperidin-1-yl)-7-[4-(trifluoromethyl)benzyl]-7H-purine-2-carboxylic acid], the IC50 (Table 9) is reported as 7.57 nM.

With `C[C@@H](Nc1nc(C(=O)O)nc2nc(NC3CCCCC3)n(Cc3ccc(C(F)(F)F)cc3)c12)C1CCC1` [Example 9.12, 6-{[(1R)-1-cyclobutylethyl]amino}-8-(cyclohexylamino)-7-[4-(trifluoromethyl)benzyl]-7H-purine-2-carboxylic acid] the IC50 (Table 9) was 7.65 nM.

Compound `C[C@H](Nc1nc2nc(-c3n[nH]c(=O)o3)nc(-c3cccc(Cl)c3)c2n1C[C@H]1CC[C@H](C)CC1)c1cccc(F)c1` [Example 16.55, 5-{6-(3-chlorophenyl)-8-{[(1S)-1-(3-fluorophenyl)ethyl]amino}-7-[(trans-4-methylcyclohexyl)methyl]-7H-purin-2-yl}-1,3,4-oxadiazol-2(3H)-one] has an IC50 [1] of 5.04 nM.

In the case of `C[C@H]1CC[C@H](Cn2c(C(=O)c3ccccc3)nc3nc(-c4noc(=O)[nH]4)nc(-c4cccc(Cl)c4)c32)CC1` [Example 23.43, 3-[6-(3-chlorophenyl)-7-[(trans-4-methylcyclohexyl)methyl]-8-(phenylcarbonyl)-7H-purin-2-yl]-1,2,4-oxadiazol-5(4H)-one], the IC50 (Table 23) is reported as 72.7 nM.

Compound `Cc1cccc(-c2nc3nc(C(=O)O)nc(N[C@@H](C)C(C)C)c3n2Cc2ccc(C(F)(F)F)cc2)c1` [Example 6.49, 6-{[(1S)-1,2-dimethylpropyl]amino}-8-(3-methylphenyl)-7-[4-(trifluoromethyl)benzyl]-7H-purine-2-carboxylic acid] has an IC50 (Table 6) of 622 nM.

Compound `C[C@@H]1CN(C)C(=O)CN1c1nc2nc(-c3noc(=O)[nH]3)nc(-c3cccc(Cl)c3)c2n1C[C@H]1CC[C@H](C)CC1` [Example 16.68, (5R)-4-[6-(3-chlorophenyl)-7-[(trans-4-methylcyclohexyl)methyl]-2-(5-oxo-4,5-dihydro-1,2,4-oxadiazol-3-yl)-7H-purin-8-yl]-1,5-dimethylpiperazin-2-one] has an IC50 [1] of 11.5 nM.

`CC([C@H]1CC[C@H](C)CC1)n1c(N2CCOC[C@H]2C)nc2nc(-c3n[nH]c(=O)o3)nc(-c3cccc(Cl)c3)c21` (single isomer, unassigned) [Example 18.36] gave an IC50 (Table 18) of 8.87 nM.

With `C[C@H](Nc1nc2nc(C(=O)O)nc(N[C@H](C)C3CCC3)c2n1Cc1ccc(C(F)(F)F)cc1)c1cccc(F)c1` [Example 9.39, 6-{[(1R)-1-cyclobutylethyl]amino}-8-{[(1S)-1-(3-fluorophenyl)ethyl]amino}-7-[4-(trifluoromethyl)benzyl]-7H-purine-2-carboxylic acid] the IC50 (Table 9) was 0.753 nM.

In the case of `CC[C@@H]1[C@@H](C)OCCN1c1nc2nc(-c3n[nH]c(=O)o3)nc(-c3cncc(Cl)c3)c2n1C[C@H]1CC[C@H](C)CC1` [Example 16.153, 5-{6-(5-chloropyridin-3-yl)-8-[(2R,3R)-3-ethyl-2-methylmorpholin-4-yl]-7-[(trans-4-methylcyclohexyl)methyl]-7H-purin-2-yl}-1,3,4-oxadiazol-2(3H)-one], the IC50 [1] is reported as 10 nM.

With `C[C@@H](Nc1nc(-c2n[nH]c(=O)n2C)nc2nc(C3(c4ccccc4)CCC3)n(C[C@H]3CC[C@H](C)CC3)c12)C1CCC1` [Example 20.9, 5-[6-{[(1R)-1-cyclobutylethyl]amino}-7-[(trans-4-methylcyclohexyl)methyl]-8-(1-phenylcyclobutyl)-7H-purin-2-yl]-4-methyl-2,4-dihydro-3H-1,2,4-triazol-3-one] the IC50 (Table 20) was 84.4 nM.

Work on `Cc1cccc(-c2nc3nc(C(=O)O)nc(NC4CCC(CO)CC4)c3n2Cc2ccc(C(F)(F)F)cc2)c1` (stereo not drawn) [Example 6.40, 6-{[4-(hydroxymethyl)cyclohexyl]amino}-8-(3-methylphenyl)-7-[4-(trifluoromethyl)benzyl]-7H-purine-2-carboxylic acid] yielded an IC50 (Table 6) of 925 nM.

Work on `COC(c1ccccc1)c1nc2nc(-c3noc(=O)[nH]3)nc(-c3cccc(Cl)c3)c2n1C[C@H]1CC[C@H](C)CC1` (single isomer, unassigned) [Example 23.44, 3-{6-(3-chlorophenyl)-8-[methoxy(phenyl)methyl]-7-[(trans-4-methylcyclohexyl)methyl] -7H-purin-2-yl}-1,2,4-oxadiazol-5(4H)-one] yielded an IC50 (Table 23) of 4.53 nM.

`C[C@@H](Nc1nc(-c2noc(=O)[nH]2)nc2nc(CCc3ccccc3)n(C[C@H]3CC[C@H](C)CC3)c12)C1CCC1` [Example 21.24, 3-[6-{[(1R)-1-cyclobutylethyl]amino}-7-[(trans-4-methylcyclohexyl)methyl]-8-(2-phenylethyl)-7H-purin-2-yl]-1,2,4-oxadiazol-5(4H)-one] showed an IC50 (Table 21) of 8.02 nM.
